Reference: the supplement of paper PMC10307832

How the values were obtained:
Assay in all cases: relative viability (nuclei count vs DMSO), 5 days (fraction); higher = more cells survive
[1] = compound: C/C(=N\NC(=S)N1CCC1)/C2=CC=CC=N2
Summary of the method: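 In 1536-well plates, lung cancer cell lines rested overnight at 37 °C before five library-drug doses (not always all listed), √10 apart, were pinned onto vehicle-anchored plates. Nuclei were counted with MetaXpress from 4× Hoechst images taken after 5 days without medium change. Viability compares treated-well with vehicle-well nuclei as a median over plates, and plates needed control CV below 25% plus at least one doubling to pass.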

[2] = compound: C/C(=N\NC(=S)N1CCC1)/C2=CC=CC=N2 + CC(=O)Nc1cccc(-n2c(=O)n(C3CC3)c(=O)c3c(Nc4ccc(I)cc4F)n(C)c(=O)c(C)c32)c1 [Trametinib] (partner 0.02 µM)
Summary of the method: (§1)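 Medians of duplicate plates are given as relative viability. That measure is the nuclei count in treated wells divided by the count in vehicle wells. Counts were taken on 4× images of lung cancer cell lines in 1536-well plates, 5 days after pin-tool dosing the day after seeding with one drug alone or a fixed anchor-drug dose plus five library-drug doses (not always all listed) in √10 steps.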

[3] = compound: C/C(=N\NC(=S)N1CCC1)/C2=CC=CC=N2 + COc1cccc2cc(-c3nc([C@H]4CC[C@H](C(=O)O)CC4)n4ncnc(N)c34)[nH]c12 [OSI-027] (partner 0.5 µM)
Summary of the method: as §1

[4] = compound: C/C(=N\NC(=S)N1CCC1)/C2=CC=CC=N2 + N=C(N)NC(=N)NCCc1ccccc1 [Phenformin] (partner 250 µM)
Summary of the method: as §1

Cell Line: NCI-H2347
- relative viability ([1]; 0.05 µM): 0.315
- relative viability ([1]; 0.1581 µM): 0.346
- relative viability ([1]; 0.5 µM): 0.34
- relative viability ([1]; 1.581 µM): 0.256
- relative viability ([1]; 5 µM): 0.313
- relative viability ([2]; first compound 0.05 µM): 0.247
- relative viability ([2]; first compound 0.1581 µM): 0.271
- relative viability ([2]; first compound 0.5 µM): 0.244
- relative viability ([2]; first compound 1.581 µM): 0.294
- relative viability ([2]; first compound 5 µM): 0.227
- relative viability ([3]; first compound 0.05 µM): 0.242
- relative viability ([3]; first compound 0.1581 µM): 0.208
- relative viability ([3]; first compound 0.5 µM): 0.255
- relative viability ([3]; first compound 1.581 µM): 0.234
- relative viability ([3]; first compound 5 µM): 0.218
- relative viability ([4]; first compound 0.05 µM): 0.159
- relative viability ([4]; first compound 0.1581 µM): 0.195
- relative viability ([4]; first compound 0.5 µM): 0.202
- relative viability ([4]; first compound 1.581 µM): 0.208
- relative viability ([4]; first compound 5 µM): 0.273

Cell Line: NCI-H2405
- relative viability ([1]; 0.05 µM): 0.294
- relative viability ([1]; 0.1581 µM): 0.296
- relative viability ([1]; 0.5 µM): 0.288
- relative viability ([1]; 1.581 µM): 0.274
- relative viability ([1]; 5 µM): 0.283
- relative viability ([2]; first compound 0.05 µM): 0.236
- relative viability ([2]; first compound 0.1581 µM): 0.278
- relative viability ([2]; first compound 0.5 µM): 0.24
- relative viability ([2]; first compound 1.581 µM): 0.239
- relative viability ([2]; first compound 5 µM): 0.3
- relative viability ([3]; first compound 0.05 µM): 0.26
- relative viability ([3]; first compound 0.1581 µM): 0.238
- relative viability ([3]; first compound 0.5 µM): 0.229
- relative viability ([3]; first compound 1.581 µM): 0.226
- relative viability ([3]; first compound 5 µM): 0.24
- relative viability ([4]; first compound 0.05 µM): 0.21
- relative viability ([4]; first compound 0.1581 µM): 0.235
- relative viability ([4]; first compound 0.5 µM): 0.24
- relative viability ([4]; first compound 1.581 µM): 0.199
- relative viability ([4]; first compound 5 µM): 0.262

Cell Line: NCI-H3122
- relative viability ([1]; 0.05 µM): 0.13
- relative viability ([1]; 0.1581 µM): 0.121
- relative viability ([1]; 0.5 µM): 0.129
- relative viability ([1]; 1.581 µM): 0.168
- relative viability ([1]; 5 µM): 0.141
- relative viability ([2]; first compound 0.05 µM): 0.0866
- relative viability ([2]; first compound 0.1581 µM): 0.159
- relative viability ([2]; first compound 0.5 µM): 0.0947
- relative viability ([2]; first compound 1.581 µM): 0.116
- relative viability ([2]; first compound 5 µM): 0.125
- relative viability ([3]; first compound 0.05 µM): 0.138
- relative viability ([3]; first compound 0.1581 µM): 0.0988
- relative viability ([3]; first compound 0.5 µM): 0.132
- relative viability ([3]; first compound 1.581 µM): 0.134
- relative viability ([3]; first compound 5 µM): 0.129
- relative viability ([4]; first compound 0.05 µM): 0.0982
- relative viability ([4]; first compound 0.1581 µM): 0.0876
- relative viability ([4]; first compound 0.5 µM): 0.119
- relative viability ([4]; first compound 1.581 µM): 0.128
- relative viability ([4]; first compound 5 µM): 0.124

Cell Line: PC-3 [JPC-3]
- relative viability ([1]; 0.05 µM): 0.473
- relative viability ([1]; 0.1581 µM): 0.459
- relative viability ([1]; 0.5 µM): 0.358
- relative viability ([1]; 1.581 µM): 0.309
- relative viability ([1]; 5 µM): 0.231
- relative viability ([2]; first compound 0.05 µM): 0.402
- relative viability ([2]; first compound 0.1581 µM): 0.409
- relative viability ([2]; first compound 0.5 µM): 0.318
- relative viability ([2]; first compound 1.581 µM): 0.357
- relative viability ([2]; first compound 5 µM): 0.342
- relative viability ([3]; first compound 0.05 µM): 0.271
- relative viability ([3]; first compound 0.1581 µM): 0.301
- relative viability ([3]; first compound 0.5 µM): 0.265
- relative viability ([3]; first compound 1.581 µM): 0.25
- relative viability ([3]; first compound 5 µM): 0.214
- relative viability ([4]; first compound 0.05 µM): 0.332
- relative viability ([4]; first compound 0.1581 µM): 0.342
- relative viability ([4]; first compound 0.5 µM): 0.334
- relative viability ([4]; first compound 1.581 µM): 0.277
- relative viability ([4]; first compound 5 µM): 0.195

Cell Line: PC-14
- relative viability ([1]; 0.05 µM): 0.0727
- relative viability ([1]; 0.1581 µM): 0.104
- relative viability ([1]; 0.5 µM): 0.0714
- relative viability ([1]; 1.581 µM): 0.0553
- relative viability ([1]; 5 µM): 0.064
- relative viability ([2]; first compound 0.05 µM): 0.0651
- relative viability ([2]; first compound 0.1581 µM): 0.0788
- relative viability ([2]; first compound 0.5 µM): 0.0488
- relative viability ([2]; first compound 1.581 µM): 0.039
- relative viability ([2]; first compound 5 µM): 0.0546
- relative viability ([3]; first compound 0.05 µM): 0.0306
- relative viability ([3]; first compound 0.1581 µM): 0.0778
- relative viability ([3]; first compound 0.5 µM): 0.0467
- relative viability ([3]; first compound 1.581 µM): 0.041
- relative viability ([3]; first compound 5 µM): 0.0364
- relative viability ([4]; first compound 0.05 µM): 0.0972
- relative viability ([4]; first compound 0.1581 µM): 0.134
- relative viability ([4]; first compound 0.5 µM): 0.095
- relative viability ([4]; first compound 1.581 µM): 0.0228
- relative viability ([4]; first compound 5 µM): 0.0472

Cell Line: RERF-LC-KJ
- relative viability ([1]; 0.05 µM): 0.263
- relative viability ([1]; 0.1581 µM): 0.262
- relative viability ([1]; 0.5 µM): 0.252
- relative viability ([1]; 1.581 µM): 0.244
- relative viability ([1]; 5 µM): 0.248
- relative viability ([2]; first compound 0.05 µM): 0.242
- relative viability ([2]; first compound 0.1581 µM): 0.241
- relative viability ([2]; first compound 0.5 µM): 0.204
- relative viability ([2]; first compound 1.581 µM): 0.222
- relative viability ([2]; first compound 5 µM): 0.214
- relative viability ([3]; first compound 0.05 µM): 0.266
- relative viability ([3]; first compound 0.1581 µM): 0.258
- relative viability ([3]; first compound 0.5 µM): 0.251
- relative viability ([3]; first compound 1.581 µM): 0.221
- relative viability ([3]; first compound 5 µM): 0.243
- relative viability ([4]; first compound 0.05 µM): 0.316
- relative viability ([4]; first compound 0.1581 µM): 0.279
- relative viability ([4]; first compound 0.5 µM): 0.319
- relative viability ([4]; first compound 1.581 µM): 0.273
- relative viability ([4]; first compound 5 µM): 0.287

Cell Line: SK-LU-1
- relative viability ([1]; 0.05 µM): 0.24
- relative viability ([1]; 0.1581 µM): 0.233
- relative viability ([1]; 0.5 µM): 0.25
- relative viability ([1]; 1.581 µM): 0.168
- relative viability ([1]; 5 µM): 0.208
- relative viability ([2]; first compound 0.05 µM): 0.294
- relative viability ([2]; first compound 0.1581 µM): 0.278
- relative viability ([2]; first compound 0.5 µM): 0.254
- relative viability ([2]; first compound 1.581 µM): 0.191
- relative viability ([2]; first compound 5 µM): 0.258
- relative viability ([3]; first compound 0.05 µM): 0.145
- relative viability ([3]; first compound 0.1581 µM): 0.136
- relative viability ([3]; first compound 0.5 µM): 0.131
- relative viability ([3]; first compound 1.581 µM): 0.124
- relative viability ([3]; first compound 5 µM): 0.151
- relative viability ([4]; first compound 0.05 µM): 0.124
- relative viability ([4]; first compound 0.1581 µM): 0.152
- relative viability ([4]; first compound 0.5 µM): 0.174
- relative viability ([4]; first compound 1.581 µM): 0.104
- relative viability ([4]; first compound 5 µM): 0.123

Cell Line: SK-MES-1
- relative viability ([1]; 0.05 µM): 0.197
- relative viability ([1]; 0.1581 µM): 0.231
- relative viability ([1]; 0.5 µM): 0.192
- relative viability ([1]; 1.581 µM): 0.171
- relative viability ([1]; 5 µM): 0.19
- relative viability ([2]; first compound 0.05 µM): 0.277
- relative viability ([2]; first compound 0.1581 µM): 0.236
- relative viability ([2]; first compound 0.5 µM): 0.245
- relative viability ([2]; first compound 1.581 µM): 0.213
- relative viability ([2]; first compound 5 µM): 0.246
- relative viability ([3]; first compound 0.05 µM): 0.197
- relative viability ([3]; first compound 0.1581 µM): 0.182
- relative viability ([3]; first compound 0.5 µM): 0.157
- relative viability ([3]; first compound 1.581 µM): 0.137
- relative viability ([3]; first compound 5 µM): 0.186
- relative viability ([4]; first compound 0.05 µM): 0.219
- relative viability ([4]; first compound 0.1581 µM): 0.233
- relative viability ([4]; first compound 0.5 µM): 0.197
- relative viability ([4]; first compound 1.581 µM): 0.175
- relative viability ([4]; first compound 5 µM): 0.173

Cell Line: SW 1573
- relative viability ([1]; 0.05 µM): 0.119
- relative viability ([1]; 0.1581 µM): 0.115
- relative viability ([1]; 0.5 µM): 0.143
- relative viability ([1]; 1.581 µM): 0.102
- relative viability ([1]; 5 µM): 0.0766
- relative viability ([2]; first compound 0.05 µM): 0.0975
- relative viability ([2]; first compound 0.1581 µM): 0.0992
- relative viability ([2]; first compound 0.5 µM): 0.119
- relative viability ([2]; first compound 1.581 µM): 0.0672
- relative viability ([2]; first compound 5 µM): 0.0635
- relative viability ([3]; first compound 0.05 µM): 0.0449
- relative viability ([3]; first compound 0.1581 µM): 0.0562
- relative viability ([3]; first compound 0.5 µM): 0.134
- relative viability ([3]; first compound 1.581 µM): 0.065
- relative viability ([3]; first compound 5 µM): 0.0544
- relative viability ([4]; first compound 0.05 µM): 0.0755
- relative viability ([4]; first compound 0.1581 µM): 0.0616
- relative viability ([4]; first compound 0.5 µM): 0.0965
- relative viability ([4]; first compound 1.581 µM): 0.0629
- relative viability ([4]; first compound 5 µM): 0.0599

Cell Line: UMC-11
- relative viability ([1]; 0.05 µM): 0.262
- relative viability ([1]; 0.1581 µM): 0.241
- relative viability ([1]; 0.5 µM): 0.23
- relative viability ([1]; 1.581 µM): 0.193
- relative viability ([1]; 5 µM): 0.175
- relative viability ([2]; first compound 0.05 µM): 0.164
- relative viability ([2]; first compound 0.1581 µM): 0.164
- relative viability ([2]; first compound 0.5 µM): 0.159
- relative viability ([2]; first compound 1.581 µM): 0.113
- relative viability ([2]; first compound 5 µM): 0.129
- relative viability ([3]; first compound 0.05 µM): 0.235
- relative viability ([3]; first compound 0.1581 µM): 0.186
- relative viability ([3]; first compound 0.5 µM): 0.183
- relative viability ([3]; first compound 1.581 µM): 0.181
- relative viability ([3]; first compound 5 µM): 0.142
- relative viability ([4]; first compound 0.05 µM): 0.202
- relative viability ([4]; first compound 0.1581 µM): 0.19
- relative viability ([4]; first compound 0.5 µM): 0.207
- relative viability ([4]; first compound 1.581 µM): 0.185
- relative viability ([4]; first compound 5 µM): 0.168
